Experiments:
[1] = tested on: L1210; test: In vitro cytotoxicity against L1210 murine leukemia cell lines; assay type: functional, cell-based; conditions: Mus musculus
[2] = The compound was evaluated for the chemical solvolytic stability at a pH 3; assay type: physicochemical; conditions: buffer

Row | half-life [2] | Compound | IC50 [1] | T1/2 [2]
1 | – | Cc1c[nH]c2c1[C@@]13C[C@@H]1CN(C(=O)OC(C)(C)C)C3=CC2=O | – | 37 h
2 | – | Cc1n[nH]c2c1[C@]13C[C@H]1CN(C(=O)OC(C)(C)C)C3=CC2=O | 923 nM | –
3 | 133 h | CC(C)(C)OC(=O)N1C[C@H]2C[C@@]23C1=CC(=O)c1ccccc13 | 80 nM | –
4 | – | Cc1n[nH]c2c1[C@@]13C[C@@H]1CN(C(=O)OC(C)(C)C)C3=CC2=O | 206 nM | –
5 | 110 h | Cc1n[nH]c2c1C13CC1CN(C(=O)OC(C)(C)C)C3=CC2=O (centres undefined) | 370 nM | –

Row | Compound | half-life [2] | IC50 [1] | T1/2 [2]
6 | COC(=O)c1cc2c([nH]1)C(=O)C=C1N(C(=O)OC(C)(C)C)C[C@H]3C[C@]123 | 177 h | 6 nM | –
